From patent EP0581464A1, “Ester derivatives and pharmaceutical compositions containing them” (ZENECA LIMITED, priority 1992, dated 1994)

Molecular target: T1, 5-LO (Homo sapiens, UniProt P09917)
T1 construct: incubating a test compound with heparinised human blood, prior to challenge with the calcium ionophore A23187; endogenous in cells; host or cells: human whole blood (blood cells)
T1 sequence (P09917 1-674): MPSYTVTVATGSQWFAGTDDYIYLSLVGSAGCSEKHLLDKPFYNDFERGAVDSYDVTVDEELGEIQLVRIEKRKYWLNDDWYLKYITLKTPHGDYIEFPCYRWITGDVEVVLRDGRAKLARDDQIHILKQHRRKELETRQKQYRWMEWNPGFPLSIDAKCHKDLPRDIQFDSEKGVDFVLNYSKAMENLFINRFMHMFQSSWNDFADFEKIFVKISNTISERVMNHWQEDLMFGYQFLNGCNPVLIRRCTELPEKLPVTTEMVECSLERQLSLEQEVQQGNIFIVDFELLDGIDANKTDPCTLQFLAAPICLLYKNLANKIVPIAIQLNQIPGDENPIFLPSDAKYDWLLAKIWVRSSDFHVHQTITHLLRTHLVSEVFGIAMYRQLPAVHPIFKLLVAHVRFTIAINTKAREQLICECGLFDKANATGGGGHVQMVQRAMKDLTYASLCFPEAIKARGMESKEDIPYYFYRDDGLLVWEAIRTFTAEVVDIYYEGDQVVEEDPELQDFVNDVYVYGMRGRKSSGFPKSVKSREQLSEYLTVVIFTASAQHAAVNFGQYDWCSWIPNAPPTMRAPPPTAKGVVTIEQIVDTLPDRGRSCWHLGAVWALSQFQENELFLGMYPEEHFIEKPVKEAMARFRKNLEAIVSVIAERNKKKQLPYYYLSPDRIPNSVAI
Test: Test a): in vitro heparinised human blood challenged with calcium ionophore A23187, radioimmunoassay of LTB4
Type: cell-based
Settings: A23187 challenge, read-out: IC50 against LTB4 in test (a)
Source text: As stated previously, the compounds of the formula I are inhibitors of the enzyme 5-LO. […] J. Pharmacol. 1985, 84, 34P) which involve the use of a protein-LTB4 conjugate produced using the procedure of Young et alia (Prostaglandins, 1983, 26(4), 605-613). The effects of a test compound on the enzyme cyclooxygenase (which is involved in the alternative metabolic pathway for arachidonic acid and gives rise to prostaglandins, thromboxanes and related metabolites) may be measured at the same time using the specific radioimmunoassay for thromboxane B2(TxB2) described by Carey and Forder (see above). This test provides an indication of the effects of a test compound against 5-LO and also cyclooxygenase in the presence of blood cells and proteins. It permits the selectivity of the inhibitory effect on 5-LO or cyclooxygenase to be assessed. • b) An ex vivo assay system, which is a variation of test a) above, involving administration to a group of rats of a test compound (usually orally as the suspension produced when a solution of the test compound in dimethylsulphoxide is added to carboxymethylcellulose), blood collection, heparinisation, challenge with A23187 and radioimmunoassay of LTB4 and TxB2. […]

| Compound | IC50 |
| --- | --- |
| CO/N=C(\C)c1ccc(COC(=O)/C=C(\N)C2(OC)CCOCC2)cc1 [Example 2, 4-[(E)-1-methoxyiminoethyl]benzyl (Z)-3-amino-3-(4-methoxytetrahydropyran-4-yl)prop-2-enoate] | 9.36 µM |
| COC1(/C(N)=C/C(=O)OCc2ccc3ccccc3c2)CCOCC1 [Example 1, naphth-2-ylmethyl (Z)-3-amino-3-(4-methoxytetrahydropyran-4-yi)prop-2-enoate] | 0.07 µM |
